Values joined by “and” are separate entries in the source; they are usually repeats but may differ in a detail not shown here. Equal entries are not always repeated. Where two headings read alike, the source gives them in different places.
Columns and labels:
human 5-HT1A receptor = biological target: T1, human 5-HT1A receptor (Homo sapiens, UniProt P08908); assay: Competitive radioligand binding; conditions: for fold lower affinity than LSD for the 5-HT1A receptor: human 5-HT1A, relative to LSD
T1 sequence (P08908 1-422): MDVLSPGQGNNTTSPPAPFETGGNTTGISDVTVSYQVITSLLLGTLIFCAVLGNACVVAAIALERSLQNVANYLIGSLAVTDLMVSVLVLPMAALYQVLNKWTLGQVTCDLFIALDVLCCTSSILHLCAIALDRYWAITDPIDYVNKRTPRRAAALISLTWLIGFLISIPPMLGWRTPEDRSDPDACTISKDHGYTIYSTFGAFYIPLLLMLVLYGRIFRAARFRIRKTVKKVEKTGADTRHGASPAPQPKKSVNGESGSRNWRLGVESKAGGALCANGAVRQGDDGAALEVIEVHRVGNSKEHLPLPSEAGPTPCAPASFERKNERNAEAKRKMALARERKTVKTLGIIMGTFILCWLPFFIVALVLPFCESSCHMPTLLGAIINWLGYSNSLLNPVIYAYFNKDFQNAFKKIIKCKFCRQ

human 5-HT2A receptor = human 5-HT2A receptor (Homo sapiens, UniProt P28223); assay: Competitive radioligand binding
human 5-HT2A receptor, sequence (P28223 whole entry): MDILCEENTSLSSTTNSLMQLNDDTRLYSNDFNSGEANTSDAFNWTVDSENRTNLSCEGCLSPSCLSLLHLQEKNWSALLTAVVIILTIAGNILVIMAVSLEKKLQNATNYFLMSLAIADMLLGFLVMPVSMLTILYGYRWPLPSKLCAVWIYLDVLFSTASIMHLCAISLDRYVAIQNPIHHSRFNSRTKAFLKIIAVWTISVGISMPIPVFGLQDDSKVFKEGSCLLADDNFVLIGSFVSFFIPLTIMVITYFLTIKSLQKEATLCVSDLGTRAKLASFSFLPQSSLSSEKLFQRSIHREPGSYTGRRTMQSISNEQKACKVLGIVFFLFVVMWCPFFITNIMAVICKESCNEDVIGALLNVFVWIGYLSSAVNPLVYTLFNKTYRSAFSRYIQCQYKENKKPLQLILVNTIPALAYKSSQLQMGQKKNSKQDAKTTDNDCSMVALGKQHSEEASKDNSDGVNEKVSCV

human 5-HT2C receptor = biological target: T2, human 5-HT2C receptor (Homo sapiens, UniProt P28335); assay: biochemical; assay type: binding
T2 sequence (P28335 33-458): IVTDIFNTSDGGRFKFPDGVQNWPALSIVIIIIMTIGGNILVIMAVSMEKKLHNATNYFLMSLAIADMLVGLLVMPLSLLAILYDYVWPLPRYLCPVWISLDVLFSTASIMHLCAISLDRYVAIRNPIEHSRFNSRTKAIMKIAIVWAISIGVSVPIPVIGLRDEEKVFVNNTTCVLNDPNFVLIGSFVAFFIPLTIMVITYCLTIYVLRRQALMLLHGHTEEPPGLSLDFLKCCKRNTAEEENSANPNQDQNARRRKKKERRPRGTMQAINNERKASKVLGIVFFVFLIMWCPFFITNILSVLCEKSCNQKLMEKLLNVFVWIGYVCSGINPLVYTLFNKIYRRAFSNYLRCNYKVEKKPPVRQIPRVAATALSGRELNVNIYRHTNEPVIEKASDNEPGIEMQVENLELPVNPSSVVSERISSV

5-HT1B = 5-HT1B (Homo sapiens, UniProt P28222); assay: Competitive radioligand binding
5-HT1D = 5-HT1D (Homo sapiens, UniProt P28221); assay: Competitive radioligand binding
5-HT2B = 5-HT2B (Homo sapiens, UniProt P41595); assay: Competitive radioligand binding
5-HT2B, sequence (P41595 whole entry): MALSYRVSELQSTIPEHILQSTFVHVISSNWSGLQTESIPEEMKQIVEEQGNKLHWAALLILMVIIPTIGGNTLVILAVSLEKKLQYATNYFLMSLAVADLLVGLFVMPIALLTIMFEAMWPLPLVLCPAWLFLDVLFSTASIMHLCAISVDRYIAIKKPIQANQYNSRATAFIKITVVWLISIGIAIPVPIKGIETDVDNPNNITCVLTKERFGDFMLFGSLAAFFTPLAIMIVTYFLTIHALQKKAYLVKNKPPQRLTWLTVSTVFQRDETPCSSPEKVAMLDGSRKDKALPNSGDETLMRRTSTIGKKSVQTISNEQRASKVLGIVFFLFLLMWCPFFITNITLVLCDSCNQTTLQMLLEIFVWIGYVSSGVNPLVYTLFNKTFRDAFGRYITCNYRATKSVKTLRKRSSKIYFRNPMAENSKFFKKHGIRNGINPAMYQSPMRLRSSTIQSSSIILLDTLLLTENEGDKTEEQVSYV

5-HT5a = 5-HT5a (Homo sapiens, UniProt P47898); assay: Competitive radioligand binding
5-HT6 = 5-HT6 (Homo sapiens, UniProt P50406); assay: Competitive radioligand binding
5-HT6, sequence (P50406 whole entry): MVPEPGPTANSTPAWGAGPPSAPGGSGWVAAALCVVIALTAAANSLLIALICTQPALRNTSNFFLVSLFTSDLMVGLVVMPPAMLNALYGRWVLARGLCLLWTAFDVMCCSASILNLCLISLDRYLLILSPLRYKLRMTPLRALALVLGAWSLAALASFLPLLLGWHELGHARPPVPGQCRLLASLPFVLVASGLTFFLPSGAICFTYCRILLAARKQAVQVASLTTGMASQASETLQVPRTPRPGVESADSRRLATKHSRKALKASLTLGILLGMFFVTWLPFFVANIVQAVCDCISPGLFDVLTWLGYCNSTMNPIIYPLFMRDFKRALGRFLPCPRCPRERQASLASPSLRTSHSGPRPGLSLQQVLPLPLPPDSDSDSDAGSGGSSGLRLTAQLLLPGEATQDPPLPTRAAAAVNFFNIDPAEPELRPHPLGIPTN

5-HT7A = 5-HT7A (Homo sapiens, UniProt P34969); assay: Competitive radioligand binding
α1A = α1A (Homo sapiens, UniProt P35348); assay: Competitive radioligand binding
α1A, sequence (P35348 whole entry): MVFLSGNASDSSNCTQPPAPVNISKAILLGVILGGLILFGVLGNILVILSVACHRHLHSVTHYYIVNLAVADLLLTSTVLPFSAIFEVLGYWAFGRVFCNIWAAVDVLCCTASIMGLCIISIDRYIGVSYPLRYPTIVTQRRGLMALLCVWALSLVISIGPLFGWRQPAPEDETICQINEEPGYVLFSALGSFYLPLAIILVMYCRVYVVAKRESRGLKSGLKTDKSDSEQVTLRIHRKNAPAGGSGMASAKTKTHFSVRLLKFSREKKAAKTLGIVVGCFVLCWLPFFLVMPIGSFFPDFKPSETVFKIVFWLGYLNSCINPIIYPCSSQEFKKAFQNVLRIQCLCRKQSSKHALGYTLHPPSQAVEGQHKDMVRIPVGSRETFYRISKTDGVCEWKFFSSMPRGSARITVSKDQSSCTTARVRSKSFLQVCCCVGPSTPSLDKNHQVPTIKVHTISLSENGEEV

α1B = α1B (Homo sapiens, UniProt P35368); assay: Competitive radioligand binding
α1D = α1D (Homo sapiens, UniProt P25100); assay: Competitive radioligand binding
α2A = α2A (Homo sapiens, UniProt P08913); assay: Competitive radioligand binding
α2A, sequence (P08913 whole entry): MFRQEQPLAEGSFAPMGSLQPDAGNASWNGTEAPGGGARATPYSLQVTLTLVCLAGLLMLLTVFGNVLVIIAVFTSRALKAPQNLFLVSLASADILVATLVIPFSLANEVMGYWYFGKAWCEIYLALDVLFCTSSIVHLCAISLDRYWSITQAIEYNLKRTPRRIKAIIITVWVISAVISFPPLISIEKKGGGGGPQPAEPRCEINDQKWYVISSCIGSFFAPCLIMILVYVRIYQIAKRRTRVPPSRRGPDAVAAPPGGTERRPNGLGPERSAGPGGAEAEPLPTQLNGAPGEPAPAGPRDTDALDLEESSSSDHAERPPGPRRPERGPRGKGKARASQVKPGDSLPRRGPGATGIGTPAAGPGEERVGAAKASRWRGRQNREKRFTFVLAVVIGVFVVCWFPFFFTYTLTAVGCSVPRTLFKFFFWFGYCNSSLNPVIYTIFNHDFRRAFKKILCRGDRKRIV

α2B = α2B (Homo sapiens, UniProt P18089); assay: Competitive radioligand binding
α2C = α2C (Homo sapiens, UniProt P18825); assay: Competitive radioligand binding
β1 = β1 (Homo sapiens, UniProt P08588); assay: Competitive radioligand binding; design: species or system Human (heart)
β1, sequence (P08588 whole entry): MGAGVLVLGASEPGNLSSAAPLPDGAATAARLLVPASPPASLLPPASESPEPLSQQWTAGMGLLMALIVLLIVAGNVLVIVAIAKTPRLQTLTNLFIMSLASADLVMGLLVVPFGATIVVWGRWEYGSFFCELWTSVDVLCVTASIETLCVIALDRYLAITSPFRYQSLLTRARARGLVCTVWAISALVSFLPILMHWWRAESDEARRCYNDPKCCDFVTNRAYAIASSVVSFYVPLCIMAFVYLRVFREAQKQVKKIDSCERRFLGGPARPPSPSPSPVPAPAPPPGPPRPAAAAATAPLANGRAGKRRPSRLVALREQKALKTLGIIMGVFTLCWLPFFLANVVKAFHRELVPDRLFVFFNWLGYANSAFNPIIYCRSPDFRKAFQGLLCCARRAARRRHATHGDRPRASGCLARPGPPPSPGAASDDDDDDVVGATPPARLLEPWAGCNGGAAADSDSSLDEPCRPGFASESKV

β2 = β2 (Homo sapiens, UniProt P07550); assay: Competitive radioligand binding
β3 = β3 (Homo sapiens, UniProt P13945); assay: Competitive radioligand binding
β3, sequence (P13945 whole entry): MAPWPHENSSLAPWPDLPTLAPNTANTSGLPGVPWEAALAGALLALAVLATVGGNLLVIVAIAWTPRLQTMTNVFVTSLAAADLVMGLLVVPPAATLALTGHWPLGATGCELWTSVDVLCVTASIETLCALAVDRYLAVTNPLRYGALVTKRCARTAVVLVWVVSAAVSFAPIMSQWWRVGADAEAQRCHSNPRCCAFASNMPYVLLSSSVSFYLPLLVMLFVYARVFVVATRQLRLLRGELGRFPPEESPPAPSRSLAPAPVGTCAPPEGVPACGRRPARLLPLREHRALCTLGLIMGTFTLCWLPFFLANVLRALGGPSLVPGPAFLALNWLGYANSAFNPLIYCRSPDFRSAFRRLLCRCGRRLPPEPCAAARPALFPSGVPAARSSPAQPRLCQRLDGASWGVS

D1 = D1 (Homo sapiens, UniProt P21728); assay: Competitive radioligand binding
D1, sequence (P21728 whole entry): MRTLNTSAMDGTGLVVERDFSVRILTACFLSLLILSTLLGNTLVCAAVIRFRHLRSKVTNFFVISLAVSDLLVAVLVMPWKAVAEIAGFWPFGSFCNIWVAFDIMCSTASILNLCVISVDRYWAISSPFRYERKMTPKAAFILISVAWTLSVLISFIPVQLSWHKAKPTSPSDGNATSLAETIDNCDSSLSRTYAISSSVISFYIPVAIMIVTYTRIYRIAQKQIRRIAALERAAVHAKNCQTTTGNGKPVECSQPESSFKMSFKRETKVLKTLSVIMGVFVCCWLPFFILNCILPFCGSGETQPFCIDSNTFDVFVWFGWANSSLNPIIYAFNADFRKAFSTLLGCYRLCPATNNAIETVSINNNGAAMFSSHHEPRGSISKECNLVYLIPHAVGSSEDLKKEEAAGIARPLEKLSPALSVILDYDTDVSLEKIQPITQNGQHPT

D2 = D2 (Homo sapiens, UniProt P14416); assay: Competitive radioligand binding
D3 = D3 (Homo sapiens, UniProt P35462); assay: Competitive radioligand binding
D4 = D4 (Homo sapiens, UniProt P21917); assay: Competitive radioligand binding
D5 = D5 (Homo sapiens, UniProt P21918); assay: Competitive radioligand binding
H1 = H1 (Homo sapiens, UniProt P35367); assay: Competitive radioligand binding
H2 = H2 (Homo sapiens, UniProt P25021); assay: Competitive radioligand binding
H3 = H3 (Cavia porcellus, UniProt Q9JI35); assay: Competitive radioligand binding; design: species or system Guinea pig
H4 = H4 (Homo sapiens, UniProt Q9H3N8); assay: Competitive radioligand binding
human 5-HT2A (h5-HT2A) = human 5-HT2A (h5-HT2A) (Homo sapiens, UniProt P28223); assay: Gq-mediated calcium flux in Flp-In T-REx 293 cells; assay type: cell-based; conditions: for EC50: Ca^2+ flux; for Emax % 5-HT: percent 5-HT maximum response
human 5-HT2A (h5-HT2A), sequence (P28223 whole entry): as the sequence (P28223 whole entry) above

mouse 5-HT2A (m5-HT2A) = mouse 5-HT2A (m5-HT2A) (Mus musculus, UniProt P35363); assay: Gq-mediated calcium flux in Flp-In T-REx 293 cells; assay type: cell-based; conditions: for Emax % 5-HT: percent 5-HT maximum response
mouse 5-HT2A (m5-HT2A), sequence (P35363 whole entry): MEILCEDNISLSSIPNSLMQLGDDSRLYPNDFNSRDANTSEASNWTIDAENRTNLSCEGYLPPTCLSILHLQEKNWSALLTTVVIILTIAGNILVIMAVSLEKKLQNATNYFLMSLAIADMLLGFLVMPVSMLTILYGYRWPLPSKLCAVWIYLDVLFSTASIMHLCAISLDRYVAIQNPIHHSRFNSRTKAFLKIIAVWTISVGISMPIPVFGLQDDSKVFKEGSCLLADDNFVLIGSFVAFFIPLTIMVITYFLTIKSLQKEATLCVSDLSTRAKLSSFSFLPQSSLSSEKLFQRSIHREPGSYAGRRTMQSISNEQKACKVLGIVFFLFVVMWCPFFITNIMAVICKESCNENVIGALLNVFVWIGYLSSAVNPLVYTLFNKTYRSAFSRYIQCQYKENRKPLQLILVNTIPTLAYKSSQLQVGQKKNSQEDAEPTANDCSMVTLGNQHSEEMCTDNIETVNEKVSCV

human 5-HT2B (h5-HT2B) = human 5-HT2B (h5-HT2B) (Homo sapiens, UniProt P41595); assay: Gq-mediated calcium flux in Flp-In T-REx 293 cells; assay type: cell-based; conditions: for agonist activity: Ca^2+ flux
human 5-HT2B (h5-HT2B), sequence (P41595 whole entry): as the sequence (P41595 whole entry) above

[1] = biological target: T3, human 5-HT2C INI (h5-HT2C) (Homo sapiens, UniProt P28335); assay type: cell-based
T3 sequence (P28335 33-458): T2 sequence (P28335 33-458)

male C57BL/6J mice [2] = assay: Head-twitch response; assay type: in vivo, mouse; conditions: for HTR Counts (mean ± SEM): 30 min session; for HTR induced by ALD-52 after M100,907 pretreatment: 0.1 mg/kg M100,907 SC pretreatment, then 0.3 mg/kg ALD-52; for ED50: Mus musculus
male C57BL/6J mice [3] = conditions: HTR, cited from earlier work; for ED50 μg/kg (95% CI): hemitartrate (2:1) salt
human subjects = conditions: humans, cited from earlier work; for active doses: ref Rothlin (1957)
mice = conditions: quantal scoring; ref Corne and Pickering (1967); cited from earlier work
[4] = cited from earlier work
5-HT2A = conditions: ref Johnson et al., 1994, cited from earlier work; for Ki: human 5-HT2A receptor vs. [^3H] ketanserin
[5] = ref Halberstadt and Geyer (2013)

CCCC(=O)n1cc2c3c(cccc31)C1=C[C@@H](C(=O)N(CC)CC)CN(C)[C@@H]1C2 [1B-LSD, 1-butanoyl-D-lysergic acid diethylamide]
Ki (human 5-HT1A receptor): 345 ± 118 nM | fold lower affinity than LSD for the 5-HT1A receptor (human 5-HT1A receptor): 36 fold | Ki (human 5-HT2A receptor): 87.7 ± 9.4 nM | Ki (human 5-HT2C receptor): 20.8 nM | Ki (5-HT1B): 1460 nM | Ki (5-HT1D): 295 ± 77 nM | Ki (5-HT2B): 3.5 ± 0.6 nM | Ki (5-HT5a): 158 ± 42 nM | Ki (5-HT6): 607 ± 112 nM | Ki (5-HT7A): 554 ± 158 nM | Ki (α1A): > 10 µM | Ki (α1B): > 10 µM | Ki (α1D): > 10 µM | Ki (α2A): 537 ± 85 nM | Ki (α2B): 2660 nM | Ki (α2C): 812 ± 267 nM | Ki (β1): > 10 µM | Ki (β2): > 10 µM | Ki (β3): > 10 µM | Ki (D1): 1170 nM | Ki (D2): > 10 µM | Ki (D3): 352 ± 64 nM | Ki (D4): 2270 nM | Ki (D5): > 10 µM | Ki (H1): > 10 µM | Ki (H2): 842 ± 201 nM | Ki (H3): > 10 µM | Ki (H4): > 10 µM | EC50 (human 5-HT2A (h5-HT2A); EC50, nM): 85 nM | Emax % 5-HT (human 5-HT2A (h5-HT2A)): 23 % 5-HT and 23 ± 2 % 5-HT | EC50 (mouse 5-HT2A (m5-HT2A); EC50, nM, Ca^2+ flux): 45 nM | Emax % 5-HT (mouse 5-HT2A (m5-HT2A)): 35 ± 2 % 5-HT | agonist activity (human 5-HT2B (h5-HT2B)): no agonist activity | agonist activity [1]: no agonist activity | HTR potency as percent of the (molar) potency of LSD (male C57BL/6J mice [2]; HTR in mice): ~ 14% | ED50 μg/kg (95% CI) (male C57BL/6J mice [3]; ref Brandt et al. (2019)): 457.6 (334.9–625.5) μg/kg | ED50 nmol/kg (95% CI) (male C57BL/6J mice [3]; ref Brandt et al. (2019)): 976.7 (714.8–1335) nmol/kg | Molar potency (relative to LSD) (male C57BL/6J mice [3]; ref Brandt et al. (2019), listed as 1-Butanoyl-LSD): 0.14

CCC(=O)n1cc2c3c(cccc31)C1=C[C@@H](C(=O)N(CC)CC)CN(C)[C@@H]1C2 [1P-LSD, 1-propanoyl-D-lysergic acid diethylamide]
Ki (human 5-HT1A receptor): 637 ± 97 nM | fold lower affinity than LSD for the 5-HT1A receptor (human 5-HT1A receptor): 67 fold | Ki (human 5-HT2A receptor): 196 ± 19 nM | Ki (human 5-HT2C receptor): 13 ± 1.7 nM | EC50 (human 5-HT2A (h5-HT2A); EC50, nM): 11 nM | EC50 (human 5-HT2A (h5-HT2A); pEC50 ± SEM): 10.2 nM | Emax % 5-HT (human 5-HT2A (h5-HT2A)): 11 % 5-HT and 11 ± 1 % 5-HT | Emax % 5-HT (mouse 5-HT2A (m5-HT2A)): 23 ± 1 % 5-HT | agonist activity (human 5-HT2B (h5-HT2B)): no agonist activity | agonist activity ([1]; h5-HT2C, Ca^2+ flux): no agonist activity | ED50 μg/kg (95% CI) (male C57BL/6J mice [3]; ref Brandt et al. (2016)): 158.9 (65.0–388.8) μg/kg | ED50 nmol/kg (95% CI) (male C57BL/6J mice [3]; ref Brandt et al. (2016)): 349.6 (143.0–855.4) nmol/kg | Molar potency (relative to LSD) (male C57BL/6J mice [3]; ref Brandt et al. (2016)): one-third | Molar potency (relative to LSD) (male C57BL/6J mice [3]; ref Brandt et al. (2016), listed as 1-Propanoyl-LSD): 0.38

CCN(CC)C(=O)[C@@H]1C=C2c3cccc4c3c(cn4C(C)=O)C[C@H]2N(C)C1 [ALD-52, 1-Acetyl-D-lysergic acid diethylamide]
Ki (human 5-HT1A receptor): 1050 nM | fold lower affinity than LSD for the 5-HT1A receptor (human 5-HT1A receptor): 111 fold | Ki (human 5-HT2A receptor): 174 ± 43 nM | Ki (human 5-HT2C receptor): 10.2 ± 3.5 nM | EC50 (human 5-HT2A (h5-HT2A); EC50, nM): 38 nM | EC50 (human 5-HT2A (h5-HT2A); pEC50 ± SEM): 35.5 nM | Emax % 5-HT (human 5-HT2A (h5-HT2A)): 25 % 5-HT and 25 ± 2 % 5-HT | EC50 (mouse 5-HT2A (m5-HT2A); EC50, nM, Ca^2+ flux): 12 nM | EC50 (mouse 5-HT2A (m5-HT2A); pEC50 ± SEM, Ca^2+ flux): 11.5 nM | Emax % 5-HT (mouse 5-HT2A (m5-HT2A)): 29 ± 1 % 5-HT | agonist activity (human 5-HT2B (h5-HT2B)): no agonist activity | agonist activity ([1]; h5-HT2C, Ca^2+ flux): no agonist activity | HTR Counts (mean ± SEM) (male C57BL/6J mice [2]; 0.03 mg/kg IP): 8.4 ± 1.6 | HTR Counts (mean ± SEM) (male C57BL/6J mice [2]; 0.1 mg/kg IP): 12.6 ± 1.1 | HTR induced by ALD-52 after M100,907 pretreatment (male C57BL/6J mice [2]): did not induce head twitches | HTR Counts (mean ± SEM) (male C57BL/6J mice [2]; 0.3 mg/kg IP): 25.4 ± 3.2 | Molar potency (relative to LSD) (male C57BL/6J mice [2]; HTR): 0.45 | ED50 (male C57BL/6J mice [2]; read-out: ED50 nmol/kg (95% CI)): 297 nmol/kg | ED50 (male C57BL/6J mice [2]; read-out: ED50 μg/kg (95% CI)): 131 µg/kg | potency relative to LSD (human subjects; ref Abramson (1959)): 91% | potency relative to LSD (human subjects; ref Isbell et al. (1959)): equipotent | active doses (human subjects): 0.5 to 1 µg/kg | induction of head twitches in mice (mice): does not induce head twitches

CCN(CC)C(=O)[C@@H]1C=C2c3cccc4[nH]cc(c34)C[C@H]2N(C)C1 [LSD, D-lysergic acid diethylamide, reference compound]
Emax % 5-HT (human 5-HT2A (h5-HT2A)): 94 % 5-HT and 94 ± 1 % 5-HT | EC50 (mouse 5-HT2A (m5-HT2A); Ca^2+ flux): 4.25 nM | pEC50 ± SEM (mouse 5-HT2A (m5-HT2A); Ca^2+ flux): 8.37 ± 0.10 | Emax % 5-HT (mouse 5-HT2A (m5-HT2A)): 86 ± 3 % 5-HT | Emax % 5-HT (human 5-HT2B (h5-HT2B); percent 5-HT maximum response, N.A. = No Activity): 78 ± 2 % 5-HT | ED50 μg/kg (95% CI) (male C57BL/6J mice [3]; [5]): 52.9 (38.9–72.0) μg/kg | ED50 nmol/kg (95% CI) (male C57BL/6J mice [3]; [5]): 132.8 (97.6–180.7) nmol/kg | active doses (human subjects): 0.5 to 1 µg/kg | peak plasma level of LSD ([4]; humans, intravenous 2 μg/kg LSD, ref Aghajanian and Bing (1964)): 9.5 ng/mL | LSD in plasma ([4]; participants who had ingested 200 μg, ref Dolder et al., 2016): 4.5 ng/mL

CN1C[C@H](C(=O)NC2CCCCC2)C[C@@H]2c3cccc4[nH]cc(c34)C[C@H]21 [LY193525]
Ki (5-HT2A): 0.73 nM

COc1cccc([C@H](O)C2CCN(CCc3ccc(F)cc3)CC2)c1OC [M100,907, reference compound]
HTR induced by ALD-52 after M100,907 pretreatment (male C57BL/6J mice [2]): blocked

CC(C)n1cc2c3c(cccc31)[C@H]1C[C@@H](C(=O)NC3CCCCC3)CN(C)[C@@H]1C2 [amersergide]
Ki (5-HT2A): 16.2 nM | fold lower affinity than LY193525 (5-HT2A; human 5-HT2A receptor): ~ 20 fold

— article PMC9191647 (Neuropharmacology, 2019)
